Where two headings read alike, the source gives them in different places.
What was measured:
[1] = Intestinal microbiota stability (colon and small intestine), rats and mice together; type: in vitro ADME, SD rats and mice; conditions: after 4 h
Method: (§1) Plasma from mice, rats, rabbits, and humans was obtained from blood after centrifugation at 3000 r/min for 10 min. Simulated gastric fluid (SGF, pH = 1, containing pepsin) and simulated intestinal fluid (SIF, pH = 6.8, containing trypsin) were configured previously in the experiments. SD rats and mice were collected, and after removing the mucus layer from the small intestine and colon, 20 times the volume of liquid bacterial culture medium was added. An intestinal microbiota suspension was obtained after anaerobic cultivation on a shaking table at 37 °C for 12 h. In the aforementioned systems, E3 was added at a final concentration of 1 μmol/L at 37 °C for different incubation times (0, 10, 20, 30, 60, 120, and 240 min). In liver metabolic stability assays, E3 was incubated with liver microsomes or liver homogenate from mice or rats for 60 min at 37 °C. The stop solution, 5 ng/mL tolbutamide (internal standard, IS) in acetonitrile, was added to stop the metabolic process. Post-centrifugation (18,000× g, 10 min, 4 °C), supernatants were subjected to liquid chromatography–tandem mass spectrometry (LC–MS/MS). Analyte-to-IS peak area ratios quantified residual percentages via Equation (2):Remaining% = (E3peak area/ISpeak area at different time)/(E3peak area/ISpeak area at 0 min) × 100%.(2)

[2] = test system: SD rats; experiment: Long-term (7 d) diuretic activity in rats; type: in vivo, rat; conditions: for ALT / AST / Body weight / Brain index / Heart index / Kidney index / Liver index / Serum K / Serum Na / Serum creatinine / Serum urea / Spleen index / Testis index: n=6
Method: In a single-dose administration experiment, male wild-type (WT) mice, UT-B^−/− mice, UT-A1^−/− mice, or SD rats were adapted in metabolic cages for 3 d. Food and water were provided ad libitum throughout the experiment. Prior to administration, the bladder of each animal was emptied through gentle abdominal massage, and urine was collected from the metabolic cages every 2 h. Compound E3, suspended in 0.5% CMC-Na at an appropriate concentration, was administered intragastric gavage to the mice or rats (0.16, 0.8, 4, or 20 mg/kg). Vehicle control comprised 0.5% (w/v) CMC-Na. Urinary parameters were determined through the following: volume: Gravimetric analysis (1 g/mL density assumption); osmolality: freezing-point osmometry (Micro-osmometer, Fisker Associates, Norwood, MA, USA); and urea: diacetyl oxime colorimetry (QuantiChrom® kit, Elabscience, Wuhan, China). In long-term (7 d) diuretic activity experiments, male WT mice, UT-B^−/− mice, UT-A1^−/− mice, and SD rats were acclimatized in metabolic cages (Ugo Basile, Comerio, VA, Italy) for 3 d. Food and water were provided ad libitum throughout the experiment. E3 was suspended in 0.5% CMC-Na and administered at a dose of 4 or 20 mg/kg by intragastric gavage. Urine was collected by metabolic cages every 24 h. Body weight was measured daily. At 4 h after the final administration, a blood sample was obtained by heart puncture. Inner medulla and outer medulla tissue homogenates were prepared, and the supernatant after centrifugation was analyzed for solute concentration and osmolality. Urinary osmolality and urea concentration were measured as above. Serum Na^+, K^+, and Cl^− were measured in a clinical chemistry laboratory, while serum creatinine, ALT, and AST were measured through specific reagent kits (NJJC Bio, Nanjing, China).
Multiple tissues and organs were fixed with 4% paraformaldehyde and embedded in paraffin. Five μm paraffin sections were cut and stained with hematoxylin and eosin (H&E).
Inner medulla tissues were homogenized in ice-cold RIPA buffer supplemented with protease/phosphatase inhibitors (Roche, Basel, Switzerland). Following centrifugation (12,000× g, 15 min, 4 °C), supernatants were subjected to BCA quantification (Thermo Scientific, Waltham, MA, USA). Protein lysates underwent SDS-PAGE separation and electrotransfer to PVDF membranes (Amersham Biosciences, Boston, MA, USA). After 2 h blocking with 5% skimmed milk, membranes were sequentially processed with: (1) TBST washes (20 mM Tris-HCl, 137 mM NaCl, 0.1% Tween-20, pH 7.4); (2) primary antibodies (UT-A1/A2/A3, UT-B, AQP2/3, β-actin; 4 °C, 12 h); and (3) HRP-conjugated secondary antibodies (anti-mouse/rabbit IgG; RT, 2 h). Chemiluminescent detection employed the ECL reagent (Meilunbio, Dalian, China) on a Syngene GeneGnome XRQ system, with band quantification via ImageJ (v1.53k).

[3] = Intestinal microbiota stability, rat; type: in vitro ADME; conditions: Sprague-Dawley
Method: as §1

In the case of `CC(=O)c1ccc(C(=O)Nc2cccc(NS(=O)(=O)c3ccccc3)c2)o1` [Compound E3, 5-acetyl-N-(3-(phenylsulfonamido)phenyl)furan-2-carboxamide], the “E3 remaining with intestinal microbiota (colon and small intestine)” value [1] is reported as “over 82%”, the urine output ([2]; 4 mg/kg and 20 mg/kg intragastric, 7 d) is reported as “continuously increased” and the ALT ([2]; 4 mg/kg, 7 d) is reported as 42.2±5.5 U/L. For the same molecule, the AST ([2]; 4 mg/kg, 7 d) was 113.0±10.6 U/L, the Body weight ([2]; 4 mg/kg, 7 d) was 242.4 ± 2.3 g and the Brain index ([2]; 4 mg/kg, 7 d) was 0.58±0.01%. For the same molecule, the Heart index ([2]; 4 mg/kg, 7 d) was 0.38±0.01%, the Kidney index ([2]; 4 mg/kg, 7 d) was 0.78±0.03% and the Liver index ([2]; 4 mg/kg, 7 d) was 3.98±0.08%. The “Serum K” value ([2]; 4 mg/kg, 7 d) was 5.16 ± 0.10 mM, the “Serum Na” value ([2]; 4 mg/kg, 7 d) was 140.7 ± 1.2 mM and the Serum creatinine ([2]; 4 mg/kg, 7 d) was 33.6 ± 1.7 µM. The Serum urea ([2]; 4 mg/kg, 7 d) was 7.15 ± 0.16 mM, the Spleen index ([2]; 4 mg/kg, 7 d) was 0.30±0.02% and the Testis index ([2]; 4 mg/kg, 7 d) was 0.88±0.06%. The ALT ([2]; 20 mg/kg, 7 d) was 40.2±1.9 U/L, the AST ([2]; 20 mg/kg, 7 d) was 112.9±4.5 U/L and the Body weight ([2]; 20 mg/kg, 7 d) was 240.8 ± 4.1 g. It also gave a Brain index ([2]; 20 mg/kg, 7 d) of 0.64±0.01%, a Heart index ([2]; 20 mg/kg, 7 d) of 0.40±0.01% and a Kidney index ([2]; 20 mg/kg, 7 d) of 0.73±0.03%. For the same molecule, the Liver index ([2]; 20 mg/kg, 7 d) was 3.99±0.06%, the “Serum K” value ([2]; 20 mg/kg, 7 d) was 4.98 ± 0.12 mM and the “Serum Na” value ([2]; 20 mg/kg, 7 d) was 141.3 ± 1.0 mM. It also gave a Serum creatinine ([2]; 20 mg/kg, 7 d) of 34.1 ± 1.6 µM, a Serum urea ([2]; 20 mg/kg, 7 d) of 7.18 ± 0.19 mM and a Spleen index ([2]; 20 mg/kg, 7 d) of 0.29±0.01%. The Testis index ([2]; 20 mg/kg, 7 d) was 0.94±0.02%, the “excretion of non-urea solutes” value ([2]; 4 and 20 mg/kg, 7 d) was “did not change” and the urine osmolality ([2]; 4 and 20 mg/kg, 7 d) was “significantly decreased”. For the same molecule, the “H&E staining of cortex and medulla of rat kidneys” value ([2]; 7 d, except dilatation of the collecting duct due to polyuria) was “did not induce morphological abnormalities”, the “non-urea solutes in inner medullary tissue” value ([2]; 7 d, vs control) was “did not change” and the “osmolality in inner medullary tissue” value ([2]; 7 d, vs control) was “significantly decreased”. For the same molecule, the “outer medullary osmolality, urea concentration, and non-urea solute concentration” value ([2]; 7 d, vs control) was “no differences”, the “urea concentration in inner medullary tissue” value ([2]; 7 d, vs control) was “significantly decreased” and the “body weight, organ indexes, blood biochemical parameters (incl. serum Na+, K+, Cl−)” value ([2]; after 7 d of treatment, vs control) was “no significant difference”. For the same molecule, the remaining at 1 μmol/L ([3]; colon microbiota suspension, n=3, read-out: Rat colon microbiota (remaining %)) was 82.3% and the remaining at 1 μmol/L ([3]; small intestine microbiota suspension, n=3, read-out: Rat small intestine microbiota (remaining %)) was 87.4%.
